Test: Lipophilicity by reversed-phase thin-layer chromatography (RP-TLC), isopropanol-water mobile phase
Assay type: physicochemical
Conditions: for mRM (arithmetic mean of the experimental retention factors RM): RP-18F254s plates, isopropanol 70–90% in water; for RM0 (relative lipophilicity, RM extrapolated to pure water): Soczewinski Wachtmeister equation, isopropanol 70–90%; for PC1(RM): score of first principal component of RM values at isopropanol 70–90%; for b (slope): slope of RM versus isopropanol concentration; for φ0 (chromatographic hydrophobic index): φ0 = RM0/b; for lipophilicity (in words): chromatographic lipophilicity profile / lipophilicity descriptors
Protocol: Lipophilicity was assessed by RP-TLC, using RP-[…] standard silica gel plates (20 × 10 cm) as the stationary phase. An isopropanol:water binary mixture was used as the mobile phase, with different isopropanol concentrations 70%, 75%, 80%, 85%, 90% for thiazolo[3,2-b][1,2,4]triazole (1a–16a) and imidazo[2,1-b][1,3,4]thiadiazole (1b–16b) compounds.
The standard solutions (1 mg/mL) used to investigate the lipophilicity of the synthesized compounds were prepared in dichloromethane (1a–16a compounds) and dimethylsulfoxide (1b–16b compounds). From the obtained solutions, 2 µL was applied manually on the chromatographic plates, at 15 mm from the baseline and 5 mm from the edges of the plate at a spot distance of 12 mm. This procedure was repeated three times. The chromatographic plate upward elution was performed in a chromatographic chamber previously saturated for 30 min with mobile phase, at normal atmospheric pressure and room temperature. The migration distance of the eluent was 80 mm. The chromatographic plates were visually inspected under UV light at λ = 254 nm to identify the compounds. In order to minimize possible experimental errors, three measurements were performed for each mobile phase. The retention factors (Rf) were calculated as the average of three determinations in each case.
Based on the Rf values, a variety of parameters can be determined to estimate the lipophilicity of the compounds. The isocratic retention factor (RM) was determined using the Bate–Smith and Westall equation [34]:RM = log(1/Rf − 1) where Rf = x/y and x = the migration distance of the compound, and y = the migration distance of the solvent front.
There is usually a linear correlation between the RM values and the concentration of the organic component in the mobile phase. For a better estimation of lipophilicity, RM0 was determined as the extrapolated retention factor, considering pure water as the mobile phase (Soczewinski Wachtmeister equation):RM = RM0 + bC where b is the slope of the curve, which indicates the rate at which the solubility of the compound increases in the mobile phase, C is the concentration of the isopropanol in the mobile phase, and RM0 is the RM of the compound when the concentration of isopropanol is zero (extrapolated value).
To estimate the lipophilicity of the compounds, φ0, representing the chromatographic hydrophobicity index, was also determined. It corresponds to the percentage (by volume) of the organic component in the mobile phase and can be determined according to the following formula:φ0 = RM0/b
In order to assess the lipophilicity of compounds, other more relevant lipophilicity parameters have been used, such as the arithmetic mean of the experimental retention factors (mRM), and the score associated with the first principal component (PC1(RM)) obtained by applying principal component analysis (PCA) to the retention parameters RM [35, 36]. The determination of these parameters eliminates the errors that appear during the extrapolation procedure (when determining RM0) so that the results are more accurate.

SMILES | mRM (arithmetic mean of the experimental retention factors RM) | RM0 (relative lipophilicity, RM extrapolated to pure water) | PC1(RM) | b (slope) | φ0 (chromatographic hydrophobic index) | lipophilicity (in words)
FC(F)(F)c1ccc(-c2csc3nc(-c4ccccc4)nn23)cc1 [Compound 3a] | 0.065 | 2.229 | −0.341 | −0.027 | 82.54 | –
FC(F)(F)c1ccc(-c2cn3nc(-c4ccccc4)sc3n2)cc1 [Compound 3b] | 0.062 | 2.410 | −0.331 | −0.029 | 81.96 | –
COc1ccc(-c2nn3cc(-c4ccc(C(F)(F)F)cc4)nc3s2)cc1 [Compound 11b] | 0.110 | 1.973 | −0.498 | −0.023 | 84.69 | –
FC(F)(F)c1ccc(-c2csc3nc(-c4ccc(Cl)cc4)nn23)cc1 [Compound 7a] | 0.186 | 2.648 | −0.775 | −0.031 | 85.99 | –
NS(=O)(=O)c1ccc(-c2nc3scc(-c4ccc(C(F)(F)F)cc4)n3n2)cc1 [Compound 15a] | −0.504 | 1.534 | 1.694 | −0.026 | 60.16 | –
FC(F)(F)c1ccc(-c2cn3nc(-c4ccc(Cl)cc4)sc3n2)cc1 [Compound 7b] | 0.086 | 2.468 | −0.414 | −0.030 | 82.28 | –
COc1ccc(-c2csc3nc(-c4ccc(S(N)(=O)=O)cc4)nn23)cc1 [Compound 16a] | −0.529 | 0.864 | 1.788 | −0.017 | 49.68 | –
NS(=O)(=O)c1ccc(-c2nn3cc(-c4ccc(C(F)(F)F)cc4)nc3s2)cc1 [Compound 15b] | −0.504 | 1.725 | 1.693 | −0.028 | 62.28 | –
Clc1ccc(-c2nn3cc(-c4ccc(Br)cc4)nc3s2)cc1 [Compound 6b] | 0.239 | 2.454 | −0.960 | −0.028 | 87.94 | the most lipophilic compounds
COc1ccc(-c2cn3nc(-c4ccc(Cl)cc4)sc3n2)cc1 [Compound 8b] | 0.148 | 2.183 | −0.634 | −0.026 | 84.92 | –
Clc1ccc(-c2nc3scc(-c4ccc(Br)cc4)n3n2)cc1 [Compound 6a] | 0.324 | 2.582 | −1.267 | −0.028 | 91.57 | the most lipophilic compounds
COc1ccc(-c2cn3nc(-c4ccc(S(N)(=O)=O)cc4)sc3n2)cc1 [Compound 16b] | −0.511 | 0.938 | 1.723 | −0.018 | 52.12 | –
Clc1ccc(-c2nc3scc(-c4ccccc4)n3n2)cc1 [Compound 5a] | 0.178 | 2.131 | −0.743 | −0.024 | 87.32 | –

Source: publication PMC10975611, “Heterocycles 52: The Drug-Likeness Analysis of Anti-Inflammatory Thiazolo[3,2-b][1,2,4]triazole and Imidazo[2,1-b][1,3,4]thiadiazole Derivatives” (Pharmaceuticals, 2024)
